From the NIST ThermoML archive (doi:10.1016/j.jct.2016.05.014)
Values joined by “and” are separate entries in the source; they are usually repeats but may differ in a detail not shown here. Identical values can stand only once. ± gives the expanded uncertainty stated by the source.

Key:
[1] = molar heat capacity at constant pressure; settings: 101.33 kPa, Crystal, Small sample (50 mg) DSC
[2] = Crystal

Compound | molar heat capacity at constant pressure ([1]; 283.15 K) | molar heat capacity at constant pressure ([1]; 288.15 K) | molar heat capacity at constant pressure ([1]; 293.15 K) | molar heat capacity at constant pressure ([1]; 298.15 K) | molar heat capacity at constant pressure ([1]; 303.15 K) | molar heat capacity at constant pressure ([1]; 308.15 K) | molar heat capacity at constant pressure ([1]; 313.15 K) | molar heat capacity at constant pressure ([1]; 318.15 K) | molar heat capacity at constant pressure ([1]; 323.15 K) | molar heat capacity at constant pressure ([1]; 328.15 K) | molar heat capacity at constant pressure ([1]; 333.15 K) | mass density ([2]; 296 K, 101.33 kPa, X-ray diffraction) [kg/m3] | Normal melting temperature ([2]; visual observation) [°C]
CCCCC(C#N)(Cn1cncn1)c1ccc(Cl)cc1 (centres undefined) | 343.21 ± 9.5 J/K/mol and 340.09 ± 9.4 J/K/mol | 349.62 ± 9.7 J/K/mol and 349.73 ± 9.7 J/K/mol | 357.56 ± 9.9 J/K/mol and 356.25 ± 9.9 J/K/mol | 364.3 ± 10 J/K/mol and 362.78 ± 10 J/K/mol | 370.21 ± 10 J/K/mol and 369.3 ± 10 J/K/mol | 375.66 ± 10 J/K/mol and 375.82 ± 10 J/K/mol | 381.03 ± 11 J/K/mol and 382.35 ± 11 J/K/mol | 386.69 ± 11 J/K/mol and 388.87 ± 11 J/K/mol | 393.03 ± 11 J/K/mol and 395.39 ± 11 J/K/mol | 400.42 ± 11 J/K/mol and 401.92 ± 11 J/K/mol | 408.44 ± 11 J/K/mol and 409.23 ± 11 J/K/mol | 1238 ± 6 | 70.30 ± 0.58
c1ccc2ccccc2c1 [naphthalene] | 158.4 ± 3.9 J/K/mol | 161.6 ± 4 J/K/mol | 164.8 ± 4.1 J/K/mol | 168 ± 4.2 J/K/mol | 171.2 ± 4.2 J/K/mol | 174.5 ± 4.3 J/K/mol | 177.8 ± 4.4 J/K/mol | 181.1 ± 4.5 J/K/mol | 184.5 ± 4.6 J/K/mol | 187.9 ± 4.7 J/K/mol | 191.3 ± 4.7 J/K/mol |  | 
